Test results from article PMC11045757, “Group 3 medulloblastoma transcriptional networks collapse under domain specific EP300/CBP inhibition” (Nature Communications, 2024).

System: 460 barcoded cancer cell lines
Experiment: PRISM pooled barcoded cancer cell line growth screen, 10-point dose-response, 5 days, AUC
Format: cell-based
Parameters: scale not given here
From the text: Several small molecule inhibitors of distinct protein domains of EP300/CBP are available, though the majority target the histone acetyltransferase domain (HAT) or bromodomain (BRD)[5],[10],[21],[22]. […] We used these tools to investigate the relative contribution of the EP300/CBP BRD or HAT domain to tumor cell growth (Fig. 1a). To do so, we performed 10-point, dose-response growth assays using mixed pools of 460 barcoded cancer cell lines, over five days of treatment in vitro[33],[34]. Growth was measured using an area-under-the-curve (AUC) approach (Supplementary Table 1, Supplementary Fig. 1a). […] Given potential differences in compound penetration and solubility, and to compare the relative cell line and tumor-specific effects of these two compounds in assays performed non-simultaneously, we performed a median normalization of each dataset (Supplementary Table 2).

CO[C@H]1CC[C@H](n2c([C@@H]3CCCC(=O)N3c3ccc(F)c(F)c3)nc3cc(-c4c(C)noc4C)ccc32)CC1 [CCS1477]
AUC (22RV1, Prostate Cancer): 0.7824
AUC (42MGBA, Glioma): 0.959
AUC (143B, Osteosarcoma): 0.7756
AUC (639V, Bladder Cancer): 1
AUC (647V, Bladder Cancer): 0.9387
AUC (697, B-cell Leukemia): 0.8421
AUC (769P, Kidney Cancer): 0.866
AUC (5637, Bladder Cancer): 0.9709
AUC (8305C, Thyroid Cancer): 0.9842
AUC (A101D, Melanoma): 0.9949
AUC (A204, Rhabdoid): 0.6935
AUC (A253, Head and Neck Cancer): 0.8895
AUC (A375, Melanoma): 0.896
AUC (A427, Lung Cancer): 0.8534
AUC (A673, Ewing Sarcoma): 0.974
AUC (A1207, Glioblastoma): 1
AUC (ACHN, Kidney Cancer): 0.9303
AUC (AM38, Glioblastoma): 0.9422
AUC (AN3CA, Endometrial/Uterine Cancer): 0.9421
AUC (AU565, Breast Cancer): 0.9734
AUC (BDCM, AML): 0.9113
AUC (BEN, Lung Cancer): 0.7123
AUC (BFTC905, Bladder Cancer): 0.9629
AUC (BHT101, Thyroid Cancer): 0.7216
AUC (BICR16, Head and Neck Cancer): 0.7276
AUC (BICR18, Head and Neck Cancer): 0.7534
AUC (BICR22, Head and Neck Cancer): 0.8618
AUC (BICR31, Head and Neck Cancer): 0.8654
AUC (BICR56, Head and Neck Cancer): 0.8942
AUC (BT16, Rhabdoid): 0.8481
AUC (BT474, Breast Cancer): 0.9512
AUC (C32, Melanoma): 0.5879
AUC (C8166, Lymphoma): 0.8246
AUC (CADOES1, Ewing Sarcoma): 0.8986
AUC (CAKI1, Kidney Cancer): 0.9906
AUC (CAL27, Head and Neck Cancer): 0.9982
AUC (CAL54, Kidney Cancer): 0.8391
AUC (CAL62, Thyroid Cancer): 0.9564
AUC (CAL78, Chondrosarcoma): 0.8691
AUC (CAL120, Breast Cancer): 0.9482
AUC (CAOV3, Ovarian Cancer): 0.8478
AUC (CBAGPN, Ewing Sarcoma): 0.8224
AUC (CCK81, Colon/Colorectal Cancer): 0.8227
AUC (CHL1, Melanoma): 0.6111
AUC (CHLA06ATRT, Rhabdoid): 1
AUC (CHLA10, Ewing Sarcoma): 0.9814
AUC (CHLA15, Neuroblastoma): 0.7397
AUC (CHLA57, Ewing Sarcoma): 0.9985
AUC (CHP212, Neuroblastoma): 0.8537
AUC (CI1, B-cell Lymphoma): 0.9278
AUC (CJM, Melanoma): 0.8842
AUC (CL11, Colon/Colorectal Cancer): 0.761
AUC (CL34, Colon/Colorectal Cancer): 0.9427
AUC (CMLT1, CML): 0.8343
AUC (COGAR359, Rhabdoid): 1
AUC (COGE352, Ewing Sarcoma): 0.998
AUC (COLO320, Colon/Colorectal Cancer): 0.8831
AUC (COLO678, Colon/Colorectal Cancer): 0.8848
AUC (COLO783, Melanoma): 0.9736
AUC (COLO792, Melanoma): 0.8076
AUC (CORL23, Lung Cancer): 0.9125
AUC (CORL105, Lung Cancer): 0.8782
AUC (COV318, Ovarian Cancer): 0.899
AUC (COV434, Ovarian Cancer): 0.9687
AUC (CW2, Colon/Colorectal Cancer): 0.9939
AUC (CW9019, Rhabdomyosarcoma): 0.9021
AUC (DAOY, Medulloblastoma): 0.8871
AUC (DEL, Lymphoma): 1
AUC (DETROIT562, Head and Neck Cancer): 0.9177
AUC (DKMG, Glioblastoma): 1
AUC (DL, Rhabdoid): 0.7415
AUC (DMS53, Lung Cancer): 0.712
AUC (DMS273, Lung Cancer): 1
AUC (DND41, T-acute leukemia): 0.9395
AUC (DU145, Prostate Cancer): 0.9501
AUC (DU4475, Breast Cancer): 0.7484
AUC (DV90, Lung Cancer): 0.9154
AUC (EB1, Lymphoma): 0.7489
AUC (EBC1, Lung Cancer): 0.7317
AUC (ECC10, Gastric Cancer): 0.9776
AUC (ECGI10, Esophageal Cancer): 0.9953
AUC (EFE184, Endometrial/Uterine Cancer): 0.7698
AUC (EFM19, Breast Cancer): 0.7512
AUC (EFO21, Ovarian Cancer): 0.9901
AUC (EM2, CML): 0.9432
AUC (EN, Endometrial/Uterine Cancer): 1
AUC (ES2, Ovarian Cancer): 0.9355
AUC (ESS1, Endometrial/Uterine Cancer): 0.9966
AUC (EW8, Ewing Sarcoma): 1
AUC (EWS502, Ewing Sarcoma): 0.7102
AUC (FADU, Head and Neck Cancer): 0.8918
AUC (FTC133, Thyroid Cancer): 0.9601
AUC (FTC238, Thyroid Cancer): 0.9961
AUC (G292CLONEA141B1, Osteosarcoma): 1
AUC (G361, Melanoma): 0.6349
AUC (G401, Rhabdoid): 0.8875
AUC (G402, Rhabdoid): 0.8394
AUC (GB1, Glioblastoma): 0.7767
AUC (GCT, Pleomorphic Sarcoma): 0.9612
AUC (GI1, Glioblastoma): 0.7855
AUC (GOS3, Glioblastoma): 0.984
AUC (GP2D, Colon/Colorectal Cancer): 0.7748
AUC (GRANTA519, Lymphoma): 0.9571
AUC (GSS, Gastric Cancer): 0.646
AUC (HARA, Lung Cancer): 0.9612
AUC (HCC33, Lung Cancer): 0.9669
AUC (HCC38, Breast Cancer): 0.8868
AUC (HCC44, Lung Cancer): 0.9456
AUC (HCC56, Colon/Colorectal Cancer): 0.9605
AUC (HCC78, Lung Cancer): 0.8972
AUC (HCC95, Lung Cancer): 0.9968
AUC (HCC515, Lung Cancer): 0.7803
AUC (HCC1419, Breast Cancer): 0.8162
AUC (HCC1428, Breast Cancer): 0.8123
AUC (HCC1438, Lung Cancer): 0.9027
AUC (HCC1806, Breast Cancer): 0.9831
AUC (HCC1937, Breast Cancer): 1
AUC (HCC2108, Lung Cancer): 0.7949
AUC (HCC4006, Lung Cancer): 0.9703
AUC (HCT116, Colon/Colorectal Cancer): 0.9792
AUC (HDMYZ, Lymphoma): 0.8423
AUC (HDQP1, Breast Cancer): 0.939
AUC (HEC1B, Endometrial/Uterine Cancer): 0.8393
AUC (HEC6, Endometrial/Uterine Cancer): 0.9929
AUC (HEC50B, Endometrial/Uterine Cancer): 0.7901
AUC (HEL9217, AML): 0.6249
AUC (HEL, AML): 0.5914
AUC (HEP3B217, Liver Cancer): 0.9151
AUC (HEPG2, Liver Cancer): 0.7882
AUC (HEYA8, Ovarian Cancer): 0.9726
AUC (HGC27, Gastric Cancer): 0.9831
AUC (HH, Lymphoma): 0.8948
AUC (HOS, Osteosarcoma): 0.9628
AUC (HPBALL, T-acute leukemia): 0.9516
AUC (HS294T, Melanoma): 0.9659
AUC (HS766T, Pancreatic Cancer): 0.9722
AUC (HSC2, Head and Neck Cancer): 0.9695
AUC (HSC3, Head and Neck Cancer): 0.9769
AUC (HT29, Colon/Colorectal Cancer): 0.658
AUC (HT115, Colon/Colorectal Cancer): 0.9413
AUC (HT144, Melanoma): 1
AUC (HT1197, Bladder Cancer): 0.9485
AUC (HT, B-cell Lymphoma): 0.7078
AUC (HUCCT1, Bile Duct Cancer): 0.9905
AUC (HUG1N, Gastric Cancer): 0.95
AUC (HUH1, Liver Cancer): 0.8468
AUC (HUH7, Liver Cancer): 1
AUC (HUH28, Bile Duct Cancer): 0.9991
AUC (HUPT3, Pancreatic Cancer): 0.8687
AUC (HUPT4, Pancreatic Cancer): 0.7771
AUC (HUT78, Lymphoma): 0.9925
AUC (IALM, Lung Cancer): 0.7856
AUC (IGR37, Melanoma): 1
AUC (IGROV1, Ovarian Cancer): 0.9601
AUC (IM95, Gastric Cancer): 0.8194
AUC (IPC298, Melanoma): 0.9388
AUC (ISHIKAWAHERAKLIO02ER, Endometrial/Uterine Cancer): 0.9971
AUC (ISTMES1, Lung Cancer): 0.9282
AUC (J82, Bladder Cancer): 1
AUC (JEKO1, Lymphoma): 0.9796
AUC (JHH1, Liver Cancer): 0.7664
AUC (JHH4, Liver Cancer): 0.9641
AUC (JHH5, Liver Cancer): 0.6818
AUC (JHH7, Liver Cancer): 0.9818
AUC (JHOC5, Ovarian Cancer): 1
AUC (JHUEM7, Endometrial/Uterine Cancer): 0.8239
AUC (JVM3, B-cell Leukemia): 0.9481
AUC (K029AX, Melanoma): 0.7327
AUC (KALS1, Glioblastoma): 0.99
AUC (KARPAS620, Myeloma): 0.9486
AUC (KATOIII, Gastric Cancer): 0.9783
AUC (KCL22, CML): 0.7293
AUC (KD, Rhabdoid): 0.7052
AUC (KE37, T-acute leukemia): 0.8049
AUC (KE39, Gastric Cancer): 1
AUC (KELLY, Neuroblastoma): 0.8609
AUC (KMBC2, Bladder Cancer): 0.8012
AUC (KMS11, Myeloma): 0.8305
AUC (KMS12BM, Myeloma): 0.8083
AUC (KMS18, Myeloma): 0.8881
AUC (KMS21BM, Myeloma): 0.9427
AUC (KMS28BM, Myeloma): 0.7058
AUC (KMS34, Myeloma): 0.8725
AUC (KNS42, Glioblastoma): 0.9251
AUC (KNS60, Glioblastoma): 0.8942
AUC (KNS62, Lung Cancer): 0.9516
AUC (KP3, Pancreatic Cancer): 1
AUC (KPNYN, Neuroblastoma): 0.9626
AUC (KS1, Glioma): 0.7921
AUC (KU1919, Bladder Cancer): 0.7361
AUC (KYM1, Rhabdoid): 0.9475
AUC (KYSE30, Esophageal Cancer): 0.989
AUC (KYSE150, Esophageal Cancer): 0.988
AUC (KYSE410, Esophageal Cancer): 0.9549
AUC (KYSE510, Esophageal Cancer): 0.928
AUC (KYSE520, Esophageal Cancer): 0.9953
AUC (LAMA84, CML): 0.8874
AUC (LC1SQSF, Lung Cancer): 0.9937
AUC (LCLC103H, Lung Cancer): 0.945
AUC (LI7, Liver Cancer): 0.8469
AUC (LK2, Lung Cancer): 0.7132
AUC (LMSU, Gastric Cancer): 0.9918
AUC (LN18, Glioblastoma): 0.9905
AUC (LNCAPCLONEFGC, Prostate Cancer): 0.7183
AUC (LOUNH91, Lung Cancer): 1
AUC (LOVO, Colon/Colorectal Cancer): 0.6312
AUC (LOXIMVI, Melanoma): 0.8683
AUC (LS180, Colon/Colorectal Cancer): 0.9873
AUC (LS411N, Colon/Colorectal Cancer): 0.9732
AUC (LUDLU1, Lung Cancer): 0.9677
AUC (LXF289, Lung Cancer): 0.9728
AUC (M059K, Glioblastoma): 0.8113
AUC (MALME3M, Melanoma): 0.7988
AUC (MC116, B-cell Lymphoma): 0.9377
AUC (MCAS, Ovarian Cancer): 0.9952
AUC (MCF7, Breast Cancer): 0.7913
AUC (MDAMB175VII, Breast Cancer): 0.9996
AUC (MDAMB231, Breast Cancer): 0.8811
AUC (MDAMB361, Breast Cancer): 0.7401
AUC (MDAMB436, Breast Cancer): 1
AUC (MDAMB453, Breast Cancer): 0.5759
AUC (MDAMB468, Breast Cancer): 1
AUC (MDST8, Colon/Colorectal Cancer): 0.9162
AUC (MELHO, Melanoma): 0.7224
AUC (MESSA, Uterine Sarcoma): 0.7646
AUC (MFE280, Endometrial/Uterine Cancer): 0.8205
